Data from US20180202388A1, “PISTON FOR AN INTERNAL COMBUSTION ENGINE AND METHOD FOR PRODUCING THE PISTON FOR AN INTERNAL COMBUSTION ENGINE” (FEDERAL-MOGUL NURNBERG GMBH, priority 2015, published 2018).
pIC50: −log10 of the molar value. Entries after “also recorded” stand apart in the source; their conditions may differ.

Key:
[1] = system: human kinases (456 kinases); test: KINOMEscan in vitro kinase profiling (primary screen binding interactions, % Ctrl, S-score); settings: for interaction with the 456 kinases tested: screened at 1 μM; for S-score, type S1 / S-score, type S10 / Number of hits/number of kinases, S10 / Number of hits/number of kinases, S1 / Kinase targets, S10 / Kinase targets, S1: tested at 1 μM; for S-score, type S1: S(1)=(number of kinases with % Ctrl<1)/(number of kinases tested); for S-score, type S10: S(10)=(number of kinases with % Ctrl <10)/(number of kinases tested); for Number of hits/number of kinases, S10: hits with % Ctrl <10; for Number of hits/number of kinases, S1: hits with % Ctrl<1; for Kinase targets, S10: kinases with % Ctrl <10; for Kinase targets, S1: kinases with % Ctrl<1
Protocol: An in vitro kinase profiling was conducted in order to evidence the absence of protein kinase inhibition by the compounds of the invention.
DiscoveRx (Ambit Biosciences) has developed a high-throughput system (KINOMEscan™) for screening of compounds against large numbers of human kinases (456 kinases).
The compounds of the invention were screened at the concentration of 1 μM, and results for primary screen binding interactions were reported as percent control (% Ctrl), where lower numbers indicate stronger hits. DMSO is used as a negative control (100% Ctrl) while a high affinity compound is used as a positive control (0% Ctrl). % Ctrl is calculated as follow: […]
Selectivity Score or S-score is a quantitative measure of compound selectivity. It is calculated by dividing the number of kinases that compounds bind to by the total number of distinct kinases tested, excluding mutant variants. S(10)=(number of kinases with % Ctrl <10)/(number of kinases tested), S(1)=(number of kinases with % Ctrl<1)/(number of kinases tested).

[2] = system: HCT116; test: CellTiter-Blue cell-based survival/proliferation assay, HCT116; settings: Homo sapiens, HCT-116, Colorectal, 48 h
Protocol: (§1) Compounds of formula (I) were tested against a panel of about 34 human tumor cell lines representing 17 cancer type, namely leukemia (represented by 1 cell line), lymphoma (4 cell lines), myeloma (1 cell line), colorectal (2 cell lines), head and neck (3 cell lines), lung (3 cell lines), melanoma (2 cell lines), pancreas (2 cell lines), prostate (2 cell lines), ovary (2 cell lines) breast (2 cell lines), kidney (2 cell lines), stomach (2 cell lines), liver (2 cell lines), glioblastoma (2 cell lines), osteosarcoma (1 cell line), Ewing Sarcoma (1 cell line).
(§2) CellTiter-Blue cell-based survival/proliferation assay (Promega G8080) was performed on tumor cell lines. A total of 1.10^4 cells/well/50 μl were seeded in a 96-wells plate. Treatment was initiated by addition of a 2× drug solution of 1/10 serial dilutions ranging from 0 to 10 μM. Cells were grown for 48 h at 37° C. and then incubated with 10 μl/well of Promega CellTiter-Bleue reagent for 4 h at 37° C. The amount of resorufin dye formed was quantified by its fluorescence emission at 590 nm using a scanning multiwell spectrophotometer (OPTIMA, BMG labtech, France). A blank well without cells was used as a background control for the spectrophotometer.

[3] = system: A549; test: CellTiter-Blue cell-based survival/proliferation assay, A549; settings: Homo sapiens, Lung, 48 h
Protocol: as §1, §2

[4] = system: PLCPRF5; test: CellTiter-Blue cell-based survival/proliferation assay, PLCPRF5; settings: Homo sapiens, PLC-PRF-5; Liver; PLC_PRF5; 48 h
Protocol: as §1, §2

[5] = system: HL60; test: CellTiter-Blue cell-based survival/proliferation assay, HL60 (leukemia); settings: Homo sapiens, HL-60; HL60 cells, 48 h; read-out: Anti-tumoral activity (measured IC50), Leukemia HL60
Protocol: as §1, §2

[6] = system: TOV112D; test: CellTiter-Blue cell-based survival/proliferation assay, TOV112D; settings: Homo sapiens, Ovary, 48 h
Protocol: as §1, §2

[7] = system: A498; test: CellTiter-Blue cell-based survival/proliferation assay, A498; settings: Homo sapiens, Kidney, 48 h
Protocol: as §1, §2

[8] = system: HEPG2; test: CellTiter-Blue cell-based survival/proliferation assay, HEPG2; settings: Homo sapiens, Liver, 48 h
Protocol: as §1, §2

[9] = system: MESSA; test: CellTiter-Blue cell-based survival/proliferation assay, MESSA; settings: Homo sapiens, MES-SA, Ovary, 48 h
Protocol: as §1, §2

[10] = system: CLS354; test: CellTiter-Blue cell-based survival/proliferation assay, CLS354; settings: Homo sapiens, CLS-354; Head & Neck; CLS354_4; 48 h
Protocol: as §1, §2

[11] = system: AGS; test: CellTiter-Blue cell-based survival/proliferation assay, AGS; settings: Homo sapiens, Stomach, 48 h
Protocol: as §1, §2

[12] = system: DU145; test: CellTiter-Blue cell-based survival/proliferation assay, DU145; settings: Homo sapiens, DU-145, Prostate, 48 h
Protocol: as §1, §2

[13] = system: BXPC3; test: CellTiter-Blue cell-based survival/proliferation assay, BXPC3; settings: Homo sapiens, BXPC-3, Pancreas, 48 h
Protocol: as §1, §2

[14] = system: ACHN; test: CellTiter-Blue cell-based survival/proliferation assay, ACHN; settings: Homo sapiens, Kidney, 48 h
Protocol: as §1, §2

[15] = system: PANC1; test: CellTiter-Blue cell-based survival/proliferation assay, PANC1; settings: Homo sapiens, PANC-1; Pancreas; PANC_1; 48 h
Protocol: as §1, §2

[16] = system: DLD1; test: CellTiter-Blue cell-based survival/proliferation assay, DLD1; settings: Homo sapiens, DLD-1; Colorectal; DLD_1; 48 h
Protocol: as §1, §2

[17] = system: OPM2; test: CellTiter-Blue cell-based survival/proliferation assay, OPM2 (myeloma); settings: Homo sapiens, OPM-2; OPM2 cells, 48 h; read-out: Anti-tumoral activity (measured IC50), Myeloma OPM2
Protocol: as §1, §2

[18] = system: SW579; test: CellTiter-Blue cell-based survival/proliferation assay, SW579; settings: Homo sapiens, Head & Neck, 48 h
Protocol: as §1, §2

[19] = system: HEP2; test: CellTiter-Blue cell-based survival/proliferation assay, HEP2; settings: Homo sapiens, HEp-2, Head & Neck, 48 h
Protocol: as §1, §2

[20] = system: HGC27; test: CellTiter-Blue cell-based survival/proliferation assay, HGC27; settings: Homo sapiens, HGC-27, Stomach, 48 h
Protocol: as §1, §2

[21] = system: PC3; test: CellTiter-Blue cell-based survival/proliferation assay, PC3; settings: Homo sapiens, PC-3, Prostate, 48 h
Protocol: as §1, §2

[22] = system: CALU6; test: CellTiter-Blue cell-based survival/proliferation assay, CALU6; settings: Homo sapiens, Calu-6, Lung, 48 h
Protocol: as §1, §2

[23] = system: MDAMB231; test: CellTiter-Blue cell-based survival/proliferation assay, MDAMB231; settings: Homo sapiens, MDA-MB-231, Breast, 48 h
Protocol: as §1, §2

[24] = system: BT20; test: CellTiter-Blue cell-based survival/proliferation assay, BT20; settings: Homo sapiens, BT-20, Breast, 48 h
Protocol: as §1, §2

[25] = system: H1299; test: CellTiter-Blue cell-based survival/proliferation assay, H1299; settings: Homo sapiens, NCI-H1299, Lung, 48 h
Protocol: as §1, §2

CCOCc1ccc(C)c(Nc2nc(-c3ccc(N4CCNC4=O)cc3)cs2)c1 [Example 003, 1-{4-[2-(5-Ethoxymethyl-(2-methyl-phenylamino))-thiazol-4-yl]-phenyl}-imidazolidin-2-one]
interaction with the 456 kinases tested [1]: do not efficiently interact | S-score, type S1 [1]: 0.002 | S-score, type S10 [1]: 0.009 | Number of hits/number of kinases, S10 [1]: 4/456 | Number of hits/number of kinases, S1 [1]: 1/456 | Kinase targets, S10 [1]: KIT, KIT V559D,; also recorded: KIT L576P | Kinase targets, S1 [1]: PDGFRB

CCOCc1ccc(C)c(Nc2ncc(-c3ccc(N4CCNC4=O)cc3)o2)c1 [Example 006, 1-{4-[2-(5-Ethoxymethyl-(2-methyl-phenylamino))-oxazol-5-yl]-phenyl}-imidazolidin-2-one]
interaction with the 456 kinases tested [1]: do not efficiently interact | S-score, type S1 [1]: 0.000 | S-score, type S10 [1]: 0.000 | Number of hits/number of kinases, S10 [1]: 0/456 | Number of hits/number of kinases, S1 [1]: 0/456 | Kinase targets, S1 [1]: None

CCOCc1ccc(C)c(Nc2ncc(-c3ccc(-n4cccn4)cc3)o2)c1 [Example 033, (5-Ethoxymethyl-2-methyl-phenyl)-[5-(4-pyrazol-1-yl-phenyl)-oxazol-2-yl]-amine]
interaction with the 456 kinases tested [1]: do not efficiently interact | S-score, type S1 [1]: 0.000 | S-score, type S10 [1]: 0.002 | Number of hits/number of kinases, S10 [1]: 1/456 | Number of hits/number of kinases, S1 [1]: 0/456 | Kinase targets, S10 [1]: CDKL3

CCOCc1ccc(C)c(Nc2nc(-c3ccc(-n4cccn4)nc3)cs2)c1 [Example 062, 4-(6-(1H-pyrazol-1-yl)pyridin-3-yl)-N-(5-(ethoxymethyl)-2-methylphenyl)thiazol-2-amine]
pIC50 [2]: < 6.00 | pIC50 [3]: < 6.00 | pIC50 [4]: < 6.00 | pIC50 [5]: 6.30 to 7.00 | pIC50 [6]: ≥ 7.00 | pIC50 [7]: < 6.00 | pIC50 [8]: < 6.00 | pIC50 [9]: < 6.00 | pIC50 [10]: 6.00 to 6.30 | pIC50 [11]: < 6.00 | pIC50 [12]: < 6.00 | pIC50 [13]: < 6.00 | pIC50 [14]: < 6.00 | pIC50 [15]: < 6.00 | pIC50 [16]: < 6.00 | pIC50 [17]: 6.30 to 7.00 | pIC50 [18]: < 6.00 | pIC50 [19]: 6.00 to 6.30 | pIC50 [20]: < 6.00 | pIC50 [21]: < 6.00 | pIC50 [22]: < 6.00 | pIC50 [23]: < 6.00 | pIC50 [24]: < 6.00 | pIC50 [25]: < 6.00
